Laboratory results: ChEMBL document CHEMBL4673185 (RSC Med Chem, 2020)
pEC50: −log10 of the molar value. Positions of bridges follow the written chain, without caps; N, C: chain ends. Non-standard residues stand in square brackets, D forms with d. Residues, ends and D or L forms follow the SMILES beside them. Gla = N[C@@H](CC(C(=O)O)C(=O)O)C(=O)O

Key:
Insulin receptor = Insulin receptor (Homo sapiens, UniProt P06213); assay: Activation of human IR-B expressed in mouse NIH3T3 cells assessed as increase in Akt phosphorylation at Ser473 residue incubated for 30 mins by HTRF method; assay type: cell-based
Sequence of Insulin receptor (P06213 28-758 limits assumed): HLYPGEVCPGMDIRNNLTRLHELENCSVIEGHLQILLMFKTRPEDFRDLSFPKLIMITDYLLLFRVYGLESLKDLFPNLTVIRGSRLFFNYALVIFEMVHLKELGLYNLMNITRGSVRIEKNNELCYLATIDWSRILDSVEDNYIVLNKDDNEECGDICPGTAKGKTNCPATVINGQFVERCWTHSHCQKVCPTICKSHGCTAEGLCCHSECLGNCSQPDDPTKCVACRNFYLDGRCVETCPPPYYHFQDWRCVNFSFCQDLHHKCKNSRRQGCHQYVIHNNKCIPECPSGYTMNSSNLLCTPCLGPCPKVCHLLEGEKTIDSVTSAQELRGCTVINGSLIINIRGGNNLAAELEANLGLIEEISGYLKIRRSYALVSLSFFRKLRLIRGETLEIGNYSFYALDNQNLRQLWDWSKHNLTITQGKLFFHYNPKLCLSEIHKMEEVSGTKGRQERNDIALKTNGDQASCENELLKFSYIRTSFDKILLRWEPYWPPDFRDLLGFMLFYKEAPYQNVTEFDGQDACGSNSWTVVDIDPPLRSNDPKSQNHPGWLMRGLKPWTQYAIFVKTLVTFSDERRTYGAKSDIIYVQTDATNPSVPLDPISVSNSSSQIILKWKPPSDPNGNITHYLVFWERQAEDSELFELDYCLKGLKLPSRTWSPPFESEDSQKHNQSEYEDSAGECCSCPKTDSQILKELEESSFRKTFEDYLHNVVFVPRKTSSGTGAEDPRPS
Sequence of Insulin receptor (P06213 763-1382 limits assumed): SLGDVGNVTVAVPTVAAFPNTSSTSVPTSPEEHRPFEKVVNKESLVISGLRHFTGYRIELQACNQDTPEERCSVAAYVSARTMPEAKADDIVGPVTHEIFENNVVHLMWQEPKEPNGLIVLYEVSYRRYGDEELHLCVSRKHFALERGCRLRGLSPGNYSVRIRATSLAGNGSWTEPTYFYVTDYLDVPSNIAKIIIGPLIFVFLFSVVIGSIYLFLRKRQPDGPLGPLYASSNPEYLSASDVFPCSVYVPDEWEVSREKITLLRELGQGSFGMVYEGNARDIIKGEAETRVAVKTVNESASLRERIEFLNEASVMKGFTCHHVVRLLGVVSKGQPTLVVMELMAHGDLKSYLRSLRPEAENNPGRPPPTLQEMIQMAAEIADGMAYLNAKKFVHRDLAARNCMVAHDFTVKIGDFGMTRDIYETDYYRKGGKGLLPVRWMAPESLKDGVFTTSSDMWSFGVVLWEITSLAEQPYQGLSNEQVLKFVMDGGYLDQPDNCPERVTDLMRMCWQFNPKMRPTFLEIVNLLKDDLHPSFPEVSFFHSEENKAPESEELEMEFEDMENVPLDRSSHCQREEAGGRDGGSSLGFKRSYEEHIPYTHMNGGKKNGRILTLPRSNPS

[1] = Agonist activity at Zebra fish V2R expressed in African green monkey COS-1 cells assessed as increase in intracellular calcium response by FLIPR assay; assay type: cell-based; conditions: Danio rerio
[2] = molecular target: Mas-related G-protein coupled receptor member X1 (Homo sapiens, UniProt Q96LB2); assay: Activation of human MrgprX1 expressed in BAM 8-22 activated-rat KNRK cells by fura2-AM dye based calcium imaging assay; assay type: cell-based
Sequence of Mas-related G-protein coupled receptor member X1 (Q96LB2 whole entry, the tested form may be a part): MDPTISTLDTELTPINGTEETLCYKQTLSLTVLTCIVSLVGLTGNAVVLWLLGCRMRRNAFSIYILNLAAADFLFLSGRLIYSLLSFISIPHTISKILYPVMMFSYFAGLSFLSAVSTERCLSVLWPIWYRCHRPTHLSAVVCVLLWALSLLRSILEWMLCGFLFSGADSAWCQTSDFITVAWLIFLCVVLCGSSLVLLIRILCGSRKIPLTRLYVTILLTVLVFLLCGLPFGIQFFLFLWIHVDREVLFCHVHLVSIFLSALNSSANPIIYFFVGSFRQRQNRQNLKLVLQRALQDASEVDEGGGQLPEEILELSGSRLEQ

[3] = molecular target: Neurotensin receptor type 1 (Rattus norvegicus, UniProt P20789); assay: Agonist activity at rat NTR1 expressed in CHO cells assessed as effect on [3H] phosphoinositide accumulation using neurotensin (1 to 13 residues) as substrate by radioactive assay; assay type: cell-based
Sequence of Neurotensin receptor type 1 (P20789 whole entry, the tested form may be a part): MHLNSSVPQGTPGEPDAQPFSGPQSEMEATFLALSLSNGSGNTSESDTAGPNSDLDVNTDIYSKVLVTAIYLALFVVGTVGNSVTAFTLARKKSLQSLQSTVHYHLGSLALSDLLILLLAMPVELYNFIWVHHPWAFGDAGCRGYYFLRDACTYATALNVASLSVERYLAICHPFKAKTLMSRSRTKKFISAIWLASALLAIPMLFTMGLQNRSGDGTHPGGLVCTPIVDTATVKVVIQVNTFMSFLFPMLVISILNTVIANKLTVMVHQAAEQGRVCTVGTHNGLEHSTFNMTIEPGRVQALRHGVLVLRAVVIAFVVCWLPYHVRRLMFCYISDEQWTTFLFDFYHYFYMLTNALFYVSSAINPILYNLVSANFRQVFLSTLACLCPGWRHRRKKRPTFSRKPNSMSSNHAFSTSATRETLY

[4] = Agonist activity at Zebra fish V1a1R expressed in African green monkey COS-1 cells assessed as increase in intracellular calcium response by FLIPR assay; assay type: cell-based; conditions: Danio rerio
Vasopressin V1b receptor = molecular target: T1, Vasopressin V1b receptor (Homo sapiens, UniProt P47901); assay: Agonist activity at human V1bR expressed in African green monkey COS-1 cells assessed as increase in intracellular calcium response by FLIPR assay; assay type: functional, cell-based
T1 sequence (P47901 whole entry): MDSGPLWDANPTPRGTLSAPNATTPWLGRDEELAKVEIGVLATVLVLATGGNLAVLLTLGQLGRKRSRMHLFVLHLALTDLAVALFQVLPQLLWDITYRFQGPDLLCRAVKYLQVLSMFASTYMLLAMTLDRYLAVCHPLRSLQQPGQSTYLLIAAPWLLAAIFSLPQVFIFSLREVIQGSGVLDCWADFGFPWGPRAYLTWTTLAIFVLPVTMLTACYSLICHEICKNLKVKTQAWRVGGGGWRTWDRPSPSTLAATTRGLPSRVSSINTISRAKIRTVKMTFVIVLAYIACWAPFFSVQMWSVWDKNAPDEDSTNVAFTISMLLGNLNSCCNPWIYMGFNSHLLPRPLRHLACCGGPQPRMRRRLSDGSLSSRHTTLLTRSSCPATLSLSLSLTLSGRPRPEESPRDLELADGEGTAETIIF

[5] = Half life in iv dosed Wistar rat serum measured after 2 to 20 mins by HPLC analysis; assay type: ADME, organism-based; conditions: time 2-20 min

Question: With `CC[C@H](C)[C@H](NC(=O)[C@H](CC(C)C)NC(=O)[C@@H](Cc1ccc(O)cc1)NC(=O)[C@H](CCC(N)=O)NC(=O)[C@H](CC(N)=O)NC(=O)[C@H](Cc1ccc(O)cc1)NC(=O)[C@H](CCC(N)=O)NC(=O)[C@H](CC(C)C)NC(=O)[C@@H](Cc1ccc(O)cc1)NC(=O)[C@@H](Cc1ccc(O)cc1)NC(=O)[C@H](CCC(=O)O)NC(=O)CN)C(=O)N[C@@H](CCCNC(=N)N)C(=O)N[C@H](Cc1ccc(O)cc1)C(=O)N[C@@H](CCCCN)C(=O)N[C@@H](CO)C(=O)N[C@@H](CC(N)=O)C(N)=O` as the compound, how does the pEC50 (Insulin receptor) read?
Answer: 7.92

Question: With `CC(C)C[C@H](NC(=O)[C@H](Cc1ccccc1)NC(=O)[C@@H](N)CS)C(=O)NCC(=O)N[C@@H](CC(N)=O)C(=O)N[C@@H](CS)C(=O)N1CCC[C@H]1C(=O)N[C@@H](CC(=O)O)C(=O)N[C@@H](CO)C(=O)O` (H-CFLGNCPDS-OH) as the compound, how does the pEC50 [1] read?
Answer: 6.00

Question: With “H-GIV[Gla]DCCYNDCTDEKLKEYCHTLQSDSGTTLVRRRLCGS[Gla]LVTYLGELCLGN-OH (disulfide 6-11, 7-37, 20-49)” as the compound, how does the pEC50 (Insulin receptor) read?
Answer: 7.92

Question: With H-AWSGPRNRFVRF-OH as the compound, how does the pEC50 [2] read?
Answer: 5.74

Question: With “H-GVV[Gla]HCCKRACSNA[Gla]FMQFCNSDTPWNRCGSQITDSYR[Gla]LCPH-OH (disulfide 6-11, 7-29, 20-41)” as the compound, how does the pEC50 (Insulin receptor) read?
Answer: 7.92

Question: With `CC[C@H](C)[C@H](NC(=O)[C@H](CC(C)C)NC(=O)[C@@H](Cc1ccc(O)cc1)NC(=O)[C@H](CCC(N)=O)NC(=O)[C@H](CC(N)=O)NC(=O)[C@H](Cc1ccc(O)cc1)NC(=O)[C@H](CCC(N)=O)NC(=O)[C@H](CC(C)C)NC(=O)[C@@H](Cc1ccc(O)cc1)NC(=O)[C@@H](Cc1ccc(O)cc1)NC(=O)[C@H](CCC(=O)O)NC(=O)CN)C(=O)N[C@@H](CCCNC(=N)N)C(=O)N[C@H](Cc1ccc(O)cc1)C(=O)N[C@@H](CCCCN)C(=O)N[C@@H](CO)C(=O)N[C@@H](CC(N)=O)C(=O)O` as the compound, how does the pEC50 [3] read?
Answer: 7.70

Question: What does the source list for `NC(=O)C[C@H](NC(=O)CNC(=O)[C@@H]1CCCN1C(=O)[C@H](Cc1ccccc1)NC(=O)[C@@H](N)CS)C(=O)N[C@@H](CS)C(=O)N1CCC[C@H]1C(=O)N[C@@H](CC(=O)O)C(=O)N[C@@H](CO)C(N)=O` (H-CFPGNCPDS-NH2)?
Answer: pEC50 [4]: 6.00; pEC50 (Vasopressin V1b receptor): 6.00

Question: With H-HSGFLLAWSGPRNRFVRF-OH as the compound, how does the pEC50 [2] read?
Answer: 5.74

Question: For `CC[C@H](C)[C@H](NC(=O)[C@H](Cc1ccccc1)NC(=O)[C@H](CCC(=O)O)NC(=O)[C@H](CCCCN)NC(=O)[C@H](C)NC(=O)[C@H](C)NC(=O)[C@H](CCC(N)=O)NC(=O)CNC(=O)[C@H](CCC(=O)O)NC(=O)[C@H](CC(C)C)NC(=O)[C@H](Cc1ccc(O)cc1)NC(=O)[C@H](CO)NC(=O)[C@H](CO)NC(=O)[C@@H](NC(=O)[C@H](CC(=O)O)NC(=O)[C@H](CO)NC(=O)[C@@H](NC(=O)[C@H](Cc1ccccc1)NC(=O)[C@@H](NC(=O)CNC(=O)[C@H](CCC(=O)O)NC(=O)[C@H](C)NC(=O)[C@@H](N)Cc1cnc[nH]1)[C@@H](C)O)[C@@H](C)O)C(C)C)C(=O)N[C@@H](C)C(=O)N[C@@H](Cc1c[nH]c2ccccc12)C(=O)N[C@@H](CC(C)C)C(=O)N[C@H](C(=O)N[C@@H](CCCCN)C(=O)NCC(=O)N[C@@H](CCCNC(=N)N)C(=O)O)C(C)C`, which half-life [5] is on record?
Answer: 2 min

Question: With `CC[C@H](C)[C@@H]1NC(=O)[C@H](CC(=O)O)NC(=O)[C@H](CO)NC(=O)CNC(=O)[C@@H]2CSSC[C@@H]3NC(=O)[C@@H](NC(=O)[C@H](Cc4cnc[nH]4)NC(=O)[C@H](CC(C(=O)O)C(=O)O)NC(=O)[C@@H](NC(=O)[C@@H](NC(=O)CN)C(C)C)C(C)C)CSSC[C@H](NC(=O)[C@@H]4CCCN4C(=O)[C@H](CCCNC(=N)N)NC(=O)[C@H](Cc4cnc[nH]4)NC3=O)C(=O)N[C@@H](CO)C(=O)N[C@@H](CC(N)=O)C(=O)N[C@@H](C)C(=O)N[C@@H](CCC(=O)O)C(=O)N[C@@H](Cc3ccccc3)C(=O)N[C@@H](CCCCN)C(=O)N[C@@H](CCCCN)C(=O)N[C@@H](Cc3ccccc3)C(=O)N[C@@H](CSSC[C@H](C(=O)N[C@@H](Cc3ccccc3)C(=O)O)NC(=O)[C@H](CC(C)C)NC(=O)[C@H](CC(=O)O)NC(=O)[C@H](CCSC)NC(=O)[C@H](Cc3ccc(O)cc3)NC(=O)[C@H](CO)NC(=O)[C@H](CC(N)=O)NC(=O)[C@@H]3CCCN3C1=O)C(=O)N[C@@H](CC(N)=O)C(=O)N[C@@H](CO)C(=O)N[C@@H](CC(=O)O)C(=O)N[C@@H]([C@@H](C)O)C(=O)N1CC(O)C[C@H]1C(=O)N[C@@H](CCCCN)C(=O)N[C@@H](Cc1ccc(O)cc1)C(=O)N[C@@H](CCCNC(=N)N)C(=O)N2` (some centres undefined) as the compound, how does the pEC50 (Insulin receptor) read?
Answer: 7.92

Question: With H-HSGILLAWSGPRNRFVRI-OH as the compound, how does the pEC50 [2] read?
Answer: 6.30

Question: With `CC[C@H](C)[C@@H]1NC(=O)[C@H](Cc2ccc(O)cc2)NC(=O)[C@H](CO)NC(=O)[C@H](CC(N)=O)NC(=O)[C@@H]2CCCN2C(=O)[C@H]([C@@H](C)CC)NC(=O)[C@H](CC(C(=O)O)C(=O)O)NC(=O)[C@H](CO)NC(=O)CNC(=O)[C@@H]2CSSC[C@@H]3NC(=O)[C@@H](NC(=O)[C@H](Cc4cnc[nH]4)NC(=O)[C@H](CC(C(=O)O)C(=O)O)NC(=O)[C@@H](NC(=O)[C@@H](NC(=O)CN)C(C)C)C(C)C)CSSC[C@H](NC(=O)[C@@H]4CCCN4C(=O)[C@H](CCCNC(=N)N)NC(=O)[C@H](Cc4cnc[nH]4)NC3=O)C(=O)N[C@@H](CO)C(=O)N[C@@H](CC(N)=O)C(=O)N[C@@H](C)C(=O)N[C@@H](CCC(=O)O)C(=O)N[C@@H](Cc3ccccc3)C(=O)N[C@@H](CCCCN)C(=O)N[C@@H](CCCCN)C(=O)N[C@@H](Cc3ccccc3)C(=O)N[C@@H](CSSC[C@H](C(=O)N[C@@H](Cc3ccccc3)C(=O)O)NC(=O)[C@H](CC(C)C)NC(=O)[C@H](CC(=O)O)NC1=O)C(=O)N[C@@H](CC(N)=O)C(=O)N[C@@H](CO)C(=O)N[C@@H](CC(=O)O)C(=O)N[C@@H]([C@@H](C)O)C(=O)N1CC(O)C[C@H]1C(=O)N[C@@H](CCCCN)C(=O)N[C@@H](Cc1ccc(O)cc1)C(=O)N[C@@H](CCCNC(=N)N)C(=O)N2` (some centres undefined) as the compound, how does the pEC50 (Insulin receptor) read?
Answer: 7.92

Question: With `CC(C)C[C@H](NC(=O)[C@H](Cc1ccccc1)NC(=O)[C@@H](N)CS)C(=O)NCC(=O)N[C@@H](CC(N)=O)C(=O)N[C@@H](CS)C(=O)N1CCC[C@H]1C(=O)N[C@@H](CC(=O)O)C(=O)N[C@@H](CO)C(N)=O` (H-CFLGNCPDS-NH2) as the compound, how does the pEC50 [1] read?
Answer: 6.00
